Where “and” joins values, the source holds several entries; their conditions need not be identical. Equal entries are not always repeated.
Biological target: T1, Sphingosine 1-phosphate receptor 4 (Homo sapiens, UniProt O95977)
T1 sequence (O95977 whole entry): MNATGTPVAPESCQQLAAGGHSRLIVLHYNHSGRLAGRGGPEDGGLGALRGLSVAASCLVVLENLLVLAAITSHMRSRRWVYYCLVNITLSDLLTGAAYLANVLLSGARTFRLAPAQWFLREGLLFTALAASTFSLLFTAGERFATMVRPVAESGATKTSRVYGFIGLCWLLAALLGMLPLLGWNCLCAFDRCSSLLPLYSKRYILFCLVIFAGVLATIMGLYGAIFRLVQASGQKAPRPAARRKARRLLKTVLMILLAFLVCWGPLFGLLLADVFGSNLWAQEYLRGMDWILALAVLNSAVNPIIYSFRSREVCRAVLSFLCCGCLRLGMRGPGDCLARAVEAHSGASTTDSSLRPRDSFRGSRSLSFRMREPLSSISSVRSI

CCCCCCCCCCCCC/C=C\C(O)C(N)COP(=O)(O)O (stereo unspecified) [{[(4Z)-2-amino-3-hydroxyoctadec-4-en-1-yl]oxy}phosphonic acid]
Ki: 21 nM and 64 nM and 27 nM and 32 nM and 28 nM and 33 nM

Reference: BindingDB's records for doi:10.1038/sj.bjp.0705856 (Schering-Plough Research Institute, 2004)
